Experimental data reported in patent US5240935A, “Substituted 2-azabicyclo[2.2.2]octane derivatives and compositions and method of use thereof” (Sterling Winthrop Inc., priority 1992, dated 1993).
Where a name gives a salt, the structure may show the parent alone. Read-outs that look alike come from different tables or passages of the source.

How the values were obtained:
[1] = system: apomorphine-induced climbing; experiment: apomorphine-induced climbing assay; type: in vivo, mice (male, Swiss-Webster); conditions: Mus musculus, ip; test compound i.p.; apomorphine 5.5 mg/kg s.c.; rated 20-30 min post drug; Dunnett's Test P<0.05; read-out: Apomorphine-induced climbing assay MED (minimal effective dose for inhibition)
Procedure: (§1) Representative compounds of the invention were tested in vivo in the apomorphine-induced climbing assay and the apomorphine-induced stereotypy assay using the following procedures.
(§2) Male, Swiss-Webster mice (Taconic Farms, Germantown, New York), weight 20-30 grams, were grouped housed in colony facilities for a minimum of two days prior to testing. The colony facility was maintained on a 12 hour light/dark cycle (light: 0600-1800 hours) with water and Agway Prolab 100 rat chow available ad libitum. Each mouse was given an injection of test compound i.p. followed immediately by a s.c. injection of apomorphine 5.5 mg/kg or vehicle. All drugs were administered in a volume of 10 ml/kg body weight. The mice were then placed in individual cylindrical stainless steel climbing cages; 14.5 cm tall, 12 cm in diameter, with walls consisting of 1/16" O.D. bars spaced 0.8-1.0 cm apart, and were allowed to habituate to this environment for 20 minutes. […] Briefly, a (0) was scored for absence of any stereotypic behavior, infrequent stereotypic movements were scored as (1), a (2) was scored for permanent sniffing and a score of (3) indicated intense and continuous stereotypic behavior. Treatment means for the 10 minute totals were calculated for climbing and stereotypy. […] A minimal effective dose (MED) for inhibition was determined for each parameter based on these analyses.

[2] = system: apomorphine-induced stereotypy; experiment: apomorphine-induced stereotypy assay; type: in vivo, mice (male, Swiss-Webster); conditions: Mus musculus, ip; test compound i.p.; apomorphine 5.5 mg/kg s.c.; rated 20-30 min post drug; Dunnett's Test P<0.05; read-out: Apomorphine-induced stereotypy assay MED (minimal effective dose for inhibition)
Procedure: as §1, §2

sigma receptors [3] = experiment: sigma receptor binding, [^3 H]di(2-tolyl)guanidine (DTG), guinea pig brain membranes; set-up: species or system guinea pig (male Hartley); conditions: [^3 H]DTG approx. 4 nM, 25° C., 90 min; for Ki: mean of at least two separate determinations in triplicate, EBDA/LIGAND; for Percent Inhibition of [^3 H]DTG binding: at 10 μM
Procedure: Brain tissue was prepared from male Hartley guinea pigs (Hazelton Labs, Denver, Pa.) which were anesthetized with CO2 and sacrificed by decapitation. […] Homogenization was performed in 10 volumes (wt/vol) of 0.32M sucrose with a Brinkmann Polytron at setting 5, 30 sec. The homogenate was centrifuged at 900×g for 10 min at 4° C., and the supernatant was collected and centrifuged at 22,000×g for 20 min at 4° C. The pellet was resuspended in 10 volumes of Tris-HCl buffer (50 mM, pH 7.4), incubated at 37° C. for 30 min, and centrifuged at 22,000×g for 20 min at 4° C. Following this, the pellet was resuspended in Tris buffer and frozen in 5-10 mL aliquots corresponding to a tissue concentration of 100 mg/mL, at -70° C. Binding characteristics of the membranes were stable for at least one month when stored at -70° C.

sigma receptors [4] = biological target: T1, sigma receptors (Cavia porcellus, UniProt Q60492); experiment: sigma receptor binding, [^3 H](+)-pentazocine, guinea pig brain membranes; set-up: species or system guinea pig (male Hartley); conditions: for Ki: mean of at least two separate determinations in triplicate, EBDA/LIGAND; for inhibition at 10 µM: read-out: Percent Inhibition of [^3 H](+)-pentazocine binding
T1 construct: Brain tissue was prepared from male Hartley guinea pigs; from tissue; host or cells: brain membranes of male Hartley guinea pigs (22,000 x g pellet)
T1 sequence (Q60492 whole entry): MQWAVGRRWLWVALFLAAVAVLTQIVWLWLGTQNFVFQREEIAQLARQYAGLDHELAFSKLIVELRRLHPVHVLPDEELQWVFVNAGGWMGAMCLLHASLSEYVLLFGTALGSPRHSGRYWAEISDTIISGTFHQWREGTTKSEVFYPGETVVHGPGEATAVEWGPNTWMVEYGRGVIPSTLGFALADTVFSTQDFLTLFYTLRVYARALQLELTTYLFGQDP
Procedure: Brain tissue was prepared from male Hartley guinea pigs (Hazelton Labs, Denver, Pa.) which were anesthetized with CO2 and sacrificed by decapitation. All animal care and use procedures were in accord with the "Guide for the Care and Use of Laboratory Animals" (NIH Publ. No. 86-23, 1985). Homogenization was performed in 10 volumes (wt/vol) of 0.32M sucrose with a Brinkmann Polytron at setting 5, 30 sec. The homogenate was centrifuged at 900×g for 10 min at 4° C., and the supernatant was collected and centrifuged at 22,000×g for 20 min at 4° C. The pellet was resuspended in 10 volumes of Tris-HCl buffer (50 mM, pH 7.4), incubated at 37° C. for 30 min, and centrifuged at 22,000×g for 20 min at 4° C. Following this, the pellet was resuspended in Tris buffer and frozen in 5-10 mL aliquots corresponding to a tissue concentration of 100 mg/mL, at -70° C. Binding characteristics of the membranes were stable for at least one month when stored at -70° C.
On the day of the assay, membrane aliquots were thawed, resuspended in fresh Tris-HCl buffer and stored on ice until use. Each assay tube contained 100 μL of [^3 H]-(+)-pentazocine at a final concentration of approximately 0.5 nM or 100 μL of [^3 H]-di(2-tolyl)guanidine (DTG) at a final concentration of approximately 4 nM, 100 μL of various concentrations of the compounds of interest, 500 μL of the tissue suspension and 300 μL of buffer to a final assay volume of 1 mL and a final tissue concentration of approximately 8 mg/tube, corresponding to approximately 0.15 mg protein/tube. Non-specific binding was defined by addition of a final concentration of 1 μM haloperidol to blank tubes for [^3 H](+)-pentazocine assay or by addition of a final concentration of 10 μM haloperidol to blank tubes for [^3 H]DTG assay. All tubes were incubated at 37° C. for 150 min in the [^3 H](+)-pentazocine assay or at 25° C. for 90 min in the [^3 H]DTG assay before termination of the reaction by rapid filtration over Whatman GF/B glass fiber filters that were presoaked in a solution of 0.5% polyethylenimine for at least 1 hr prior to use. Filters were washed with three 4 ml volumes of cold Tris-HCl buffer.
Following addition of scintillation cocktail, samples were allowed to equilibrate for at least 4 hr. The amount of bound radioactivity was determined by liquid scintillation spectrometry using a Beckman LS 5000 TA liquid scintillation counter with an efficiency for tritium of approximately 60%. The results are reported as a percent (%) inhibition of binding at 10 μM.
Scatchard parameters and inhibition constants (Ki values) for the binding of test compounds were also calculated using the EBDA/LIGAND program (McPherson, J. Pharmacol. Meth. 1985, 14, 213-228), purchased from Elsevier/Biosoft, Inc The Ki values are expressed as the mean of at least two separate determinations performed in triplicate.

[5] = [^3 H](+)-pentazocine approx. 0.5 nM, 37° C., 150 min
[6] = at 10 μM, [^3 H](+)-pentazocine approx. 0.5 nM, 37° C., 150 min

Row | Ki (sigma receptors [3]) [µM] | Ki (sigma receptors [4]; [5]) [µM] | Percent Inhibition of [^3 H]DTG binding (sigma receptors [3]) [%] | inhibition at 10 µM (sigma receptors [4]; [6]) [%] | SMILES | minimal effective dose [1] [µmol/kg] | minimal effective dose [2] [µmol/kg] | inhibition at 10 µM (sigma receptors [4]) [%]
1 | 0.0755 | 0.141 |  |  | CCOC(=O)C1CC2C(C(C)C)CC1N(Cc1ccccc1)C2C (stereo not shown) [Example 9f, ethyl 3-methyl-8-(isopropyl)-2-(phenylmethyl)-2-azabicyclo[2.2.2]octane-6-carboxylate] | 304 | 304 | 
2 |  |  | 57 | 33 | CC=C1CC2C(C(=O)OCC)CC1C(Cc1ccccc1)N2Cc1ccccc1 (stereo not shown) [Example 3e, ethyl 2,3-di(phenylmethyl)-8-ethylidene-2-azabicyclo-[2.2.2]octane-6-carboxylatetrihydrochloride hydrobromide] |  |  | 
3 | 6.47 | 9.82 | 29 |  | CCOC(=O)C1(C)CC2(C)C(C)CC1N(Cc1ccccc1)C2C (stereo not shown) [Example 8a, ethyl 2-(phenylmethyl)-3,4,6,8-tetramethyl-2-azabicyclo[2.2.2]octane-6-carboxylate] |  |  | 
4 | 1.01 | 2.62 | 86 | 77 | CC(=O)C1CC2C(C(C)C)CC1N(Cc1ccccc1)C2C (stereo not shown) [Example 11b, 1-[3-methyl-8-isopropyl-2-(phenylmethyl)-2-azabicyclo[2.2.2]octan-6-yl]-ethanone] |  |  | 
5 | 2.88 | 2.96 | 75 | 72 | CCC1CC2C(C(C)(C)O)CC1C(Cc1ccccc1)N2C (stereo not drawn) [Example 4e, 3-(phenylmethyl)-8-ethyl-2,α,α-trimethyl-2-azabicyclo[2.2.2]octane-6-methanol] |  |  | 
6 | 6.11 | 6.06 |  | 59 | CC1CC2C(C(C)(C)O)CC1(C)C(C)N2Cc1ccccc1 (stereo not drawn) [Example 7, α,α,3,4,8-pentamethyl-2-(phenylmethyl)-2-azabicyclo[2.2.2]octane-6-methanol] |  |  | 
7 | 0.24 | 0.242 |  |  | CCOC(=O)C1CC2(C)C(C)CC1N(Cc1ccccc1)C2C (stereo not shown) [Example 2b, ethyl 3,4,8-trimethyl-2-(phenylmethyl)-2-azabicyclo[2.2.2]octane-6-carboxylate] | 317 | 951 | 
8 | 2.71 | 5.95 | 75 | 63 | CCOC(=O)C1(SC)CC2(C)C(C)CC1N(C)C2C (stereo not shown) [Example 6, ethyl 2,3,4,8-tetramethyl-6-(methylthio)-2-azabicyclo[2.2.2]octane-6-carboxylate] |  |  | 
9 | 1.24 | 1.19 | 79 | 79 | CCOC(=O)C1(C(=O)OCC)CC2(C)C(C)CC1N(Cc1ccccc1)C2C (stereo not shown) [Example 2c, diethyl 3,4,8-trimethyl-2-(phenylmethyl)-2-azabicyclo-[2.2.2] octane-6,6-dicarboxylate] |  |  | 
10 | 4.55 | 8.88 | 65 | 47 | CC(=O)C1(C)CC2(C)C(C)CC1N(Cc1ccccc1)C2C (stereo not shown) [Example 8b, 1-[3,4,6,8-tetramethyl-2-(phenylmethyl) -2-azabicyclo[2.2.2]oct-6-yl]ethanone] |  |  | 

Row | SMILES | Ki (sigma receptors [3]) [µM] | Ki (sigma receptors [4]; [5]) [µM] | Percent Inhibition of [^3 H]DTG binding (sigma receptors [3]) [%] | inhibition at 10 µM (sigma receptors [4]; [6]) [%] | minimal effective dose [1] [µmol/kg] | minimal effective dose [2] [µmol/kg] | inhibition at 10 µM (sigma receptors [4]) [%]
11 | CCOC(=O)C1CC23CCCCC2CC1N(Cc1ccccc1)C3C (stereo not shown) [Example 5e, Ethyl 2,3,4,4a,5,6,7,8-octahydro-1-methyl-2-(phenylmethyl)-1H-3,8a-ethanoisoquinoline-10-carboxylate hydrochloride] | 0.357 | 0.332 |  |  |  |  | 97
12 | CC1CC2C(CO)CC1(C)C(C)N2C (stereo not shown) [Example 10, 2,3,4,8-tetramethyl-2-azabicyclo[2.2.2]octane-6-methanol] |  |  | 48 |  |  |  | 24
13 | CCOC(=O)C1CC2C(C)NC1CC2C(C)C (stereo not shown) [Example 9e, ethyl 3-methyl-8-isopropyl-2-azabicyclo-[2.2.2]octane-6-carboxylate] |  |  | 48 |  |  |  | 30
